Tested on: indomethacin-induced ulcers
Assay: Indomethacin-induced ulcer model, therapeutic treatment: healing of gastric lesions
Type: in vivo, male Wistar rats
Description: All studies were conducted on male Wistar rats weighing 220 ± 20 g, obtained from Rappolovo nursery (Leningrad oblast). For 14 days prior to the experiment, the animals were held in isolation. The animals were handled in accordance with the European Convention for the Protection of Vertebrate Animals used for Experimental and Other Scientific Purposes (Strasburg, 1986). The animals were held in standard plastic cages and fed a standard diet of PK120-3 (granulated feed in accordance with order # 1179 M3 USSR 10/10/1983) with a free access to water.
Animals' body weight changes were monitored throughout the experiment. The experimental animals were then sacrificed by decapitation, and their blood was collected in test tubes. The stomachs were extracted, dissected along the major curve, rinsed with cold saline solution, and the mucosa was carefully examined through a magnifying glass under bright lights. The mucosa was inspected for color, the presence of hyperemia and its intensity. The number of lesions, which were differentiated into small round (less than 1 mm), linear, and large lesions (more than 1mm) and the size of the area they covered were calculated. The average number of lesions per one animal in a group and the percentage of animals with ulcers were also calculated. Pauls Index (PI) was used as an integral indicator of the number of lesions and was calculated as follows: • PI = average number of lesions in a group x % of animals with lesions/100 [Pauls F., Wick A.M.,Mac. Key E.M. et al. An assau method for anti ulcer substances // Gastroenterology.- 1947. #8.- p.p.774 - 782]. Ulcer index UI was calculated as: UI = average lesion area size in the group x % of animals with lesions/100; gastroprotective activity GA1 was calculated as: GA1 = PI of the control group/PI of the experimental group, GA2 = UI of the control group/UI of the experimental group. The proposed drug was considered active when GA ≥ 2.
Five groups of 10 animals per group were prepared for the experiment as described in Example 1.
In each series of the experiments, the animals were divided into experimental and control groups at 10 animals per group. The proposed medication or a comparator drug were orally administered to the animals in the experimental group, and the control animals were given distilled water in the same amount. • control group received distilled water per os; • experimental group 1 received 0.1 mkg/kg isovaleroyl glutamyl tryptophan; • experimental group 2 received 10 mkg/kg isovaleroyl glutamyl tryptophan; • experimental group 3 received 200 mkg/kg of the comparator drug Sucralfate.
2 ml/kg of the ulcerogenic dose of indomethacin equal to 30 mg/kg was administered intraperitoneally. The treatment started 24 hrs. post indomethacin administration and continued for 5 days. The animals in the experimental groups received N-isovaleroyl-L-glutamyl-L-tryptophan or the comparator drug Sucralfate, and the control group received distilled water.

[1] = Indomethacin 30 mg/kg + 200 mg/kg, treatment 5 days

**Q.** With “aluminum complex of beta-D-fructofuranosyl-alpha-D-glucopyranoside octakis (hydrosulfate) [Sucralfate]” as the substance, how does the “# Lesions” value [1] read?
**A.** Its value is 3.3 ± 1.0.

**Q.** And the “% Animals with Ulcers” value [1]?
**A.** The value was 85.7%.

**Q.** What about the “GA1 (gastroprotective activity calculated for number of lesions)” value [1] of the same substance?
**A.** Its value is 3.0.

**Q.** What about the “GA2 (gastroprotective activity calculated for lesion size)” value [1] of the same substance?
**A.** Its value is 3.3.

**Q.** What about the “Lesion Size” value [1] of the same substance?
**A.** The value was 11.5 ± 4.26.

**Q.** And the PI [1]?
**A.** Its PI is 2.8.

**Q.** What about the “Ulcer Index” value [1] of the same substance?
**A.** The value was 9.86.

**Q.** And the “animals found to have lesions” value (treatment after Indomethacin)?
**A.** The value was 85.7%.
